Experiments:
[1] = system: obese, hyperinsulinemic hamsters; settings: ezetimibe treatment; cited from earlier work
[2] = system: hypercholesterolemic/diet induced obese C57BL/6 mouse; experiment: Treatment of hypercholesterolemic/diet induced obese C57BL/6 mice with ezetimibe; assay type: in vivo; settings: 5 mg/kg/day
Experimental: The hypercholesterolemic/diet induced obese C57BL/6 mouse can be used to evaluate the vivo efficacy of a cholesterol absorption inhibitor, ezetimibe, in combination with a selective CB1 receptor antagonist, rimonabant. Feeding mice a “western” diet containing 45 kcal % of fat and 0.15% cholesterol diet for 21 days increased plasma cholesterol to 150 mg/dL and increased hepatic cholesteryl esters 2-fold.
Nonfasted plasma cholesterol levels were determined by a modification of the cholesterol oxidase method, in which the reagents were available in a kit form from Wako Pure Chemicals Industries, Ltd. (Osaka, Japan). Samples of liver (0.2 g) were lipid extracted. Lipid extracts were dried under nitrogen into HPLC sample vials, resuspended in hexane and injected onto a Zorbax Sil (4.6×25 cm) silica column. Chromatography was performed using an isocratic mobile phase containing 98.8% hexane and 1.2% isopropanol at a flow rate of 2 mL/min. Lipids were detected by absorbance at 206 nm and quantitated by computer integration (System Gold, Beckman) of elution profiles. Elution time for cholesteryl ester was 1.45 min. Cholesteryl ester content of liver-derived samples was derived from a standard curve constructed using known amounts of cholesteryl oleate. Cholesteryl oleate was used as the standard since this is the major cholesteryl ester species present in the liver and this specific cholesteryl ester has an extinction coefficient that approximates that of a weighted average for all the cholesteryl esters present in the liver.

patients = settings: cited from earlier work
diet-induced obese mice = settings: mouse, in vivo; cited from earlier work
Diet induced obese mice = experiment: Treatment of diet induced obese C57BL/6 mice with rimonabant; assay type: in vivo, mouse; settings: 1, 3 and 10 mg/kg p.o. once a day for 5 consecutive days; western diet 16 weeks; at all doses
Experimental: Plasma leptin and insulin were determined using commercially available ELISA kits (Crystal Chem and ALPCO for leptin and insulin, respectively). Whole body adiposity was determined using an NMR based method (EchoMRI, Echo Medical Inc.).

## O=C1[C@H](CC[C@H](O)c2ccc(F)cc2)[C@@H](c2ccc(O)cc2)N1c1ccc(F)cc1 [Ezetimibe, ezetimibe]
[1]
  body weights: does not appear to cause any changes
  food consumption: does not appear to cause any changes
  plasma leptin levels: does not appear to cause any changes
[2]; western diet 21 days
  accumulation of hepatic cholesteryl esters: completely inhibited
[2]; western diet 21 days, control 12.8 mg/g
  hepatic cholesteryl esters: 4.6 mg/g
[2]; western diet (45 kcal % fat, 0.15% cholesterol) for 21 days, diet control 150 mg/dL
  plasma cholesterol levels: 102 mg/dL

## Cc1c(C(=O)NN2CCCCC2)nn(-c2ccc(Cl)cc2Cl)c1-c1ccc(Cl)cc1 [rimonabant]
patients
  serum high density lipoprotein (HDL) levels: increase
  triglyceride levels: decrease
diet-induced obese mice
  plasma cholesterol levels: does not appear to reduce
Diet induced obese mice
  adiposity: significant dose dependent reduction
  body weight: significant dose dependent reduction
  cumulative food intake: significant dose dependent reduction
  plasma insulin levels: significant dose dependent reduction
  plasma leptin levels: significant dose dependent reduction

Source: US20060069080A1, “Combinations of substituted azetidinones and CB1 antagonists” (priority 2004, published 2006)
